Measurements: patent US7507739B2, “6-[(substituted)phenyl]triazolopyrimidines as anticancer agents” (Wyeth, priority 2003, dated 2009)
Where two headings read alike, the source gives them in different places.

How the values were obtained:
[1] = system: KB cells; assay: MTS cytotoxicity test with KB cells; type: cell-based; details: Homo sapiens, read-out: IC50 KB
From the text: (§1) Human cancer cell lines, unless otherwise noted, are obtained from the American Type Culture Collection (Rockville, Md.). The following drug-sensitive parental cell lines, and their derived drug-resistant counterparts, are obtained from the originators as listed: (a) S1 (parental line from a subclone of human colon carcinoma line LS174T) and derived S1-M1-3.2 (herein called S1-M1) which expresses the MXR drug transporter protein, are provided by Dr. L. Greenberger, Wyeth Research (Rabindran, S. K., He, H., Singh, M., Brown, E., Collins, K. I., Annable, T., and Greenberger, L. M. Reversal of a novel multidrug resistance mechanism in human colon carcinoma cells by fumitremorgin C. Cancer Res., 58:5850-5858,1998); (b) parental HL-60 human promyelocytic leukemia line and derived HL-60/ADR, which expresses the MRP1 drug transporter protein, are provided by Dr. M. Center, University of Kansas (McGrath, T., and Center, M. S. Adriamycin resistance in HL60 cells in the absence of detectable P-glycoprotein. Biochem. Biophys. […] J. Biol. Chem., 261: 7762-7770,1986) via Dr. L. Greenberger, Wyeth Research.
(§2) The assay, which is sold in kit form by Promega (Madison, Wis.; CellTiter 96 AQueous Non-Radioactive Cell Proliferation Assay), is based on the conversion by viable cells, but not by dead cells, of the tetrazolium salt, MTS (3-(4,5-dimethylthiazol-2-yl)-5-(3-carboxymethoxyphenyl)-2-(4-sulphophenyl)-2H-tetrazolium, inner salt), into a water-soluble colored formazan which is detected by spectrophotometry. Compounds are tested at nine concentrations, in order to determine IC50 values. For the test procedure, cells are harvested by trypsinization (or, in the case of non-adherent cells, by simple resuspension), washed, counted and distributed to wells of 96-well flat-bottom microtiter plates at 1000 cells per well in 200 μL of medium. In addition, one row of wells on a separate plate received cells as above (“time 0” plate). All plates are incubated at 37° in humidified 5% CO2 in air for about 24 hr.
(§3) On day 2, compounds for test are diluted and added to wells. Compounds are dissolved in DMSO at 10 mg/mL. For each compound, nine serial 2-fold dilutions are prepared in DMSO. Ten μL of each dilution in DMSO is transferred to 100 μL of medium, mixed well, and then 5 μL of this dilution is transferred in quadruplicate to wells containing cells. […] Plates are returned to the incubator for three days. At the time of drug addition to the experimental plates, the MTS assay is run on the “time 0” plate. This produced the “time 0 MTS value” which is related to the number of viable cells per well at the time of drug addition.
(§4) After three days of culture with test compounds (day 5 overall), the MTS assay is done on all wells of the experimental plates. The absorbance values of the quadruplicate sample wells are averaged and divided by the average of the “time 0” values. […] The nine values for each compound are plotted against concentration, and the concentration that produced a relative color yield half way between the maximum and minimum is taken as the IC50 value.
The KB lines express different amounts of the P-glycoprotein (MDR1) membrane pump which produces resistance to the action of many cytotoxic compounds, including paclitaxel and vincristine. The parental KB line expresses no P-glycoprotein, KB-8-5 expresses moderate levels of the protein, and KB-V1 expresses very high levels.

[2] = system: HL-60 cells; assay: MTS cytotoxicity test with HL-60 cells; type: cell-based; details: Homo sapiens
From the text: as §1, §2, §3, §4
(§5) HL-60/ADR cells overexpress the multidrug resistance protein MRP1 which mediates resistance to some chemotherapeutics (Gottesman, M. M., Fojo, T., and Bates, S. E. Multidrug resistance in cancer: role of ATP-dependent transporters. Nature Rev. Cancer, 2: 48-58, 2002). The IC50 values of representative examples of this invention, as well as reference compounds, on HL-60/ADR are compared to values on the sensitive parental HL-60 line.

[3] = system: HL-60/ADR cells; assay: MTS cytotoxicity test with HL-60/ADR cells (MRP1); type: cell-based, human; details: for IC50: Homo sapiens, HL60/ADR, read-out: IC50 HL-60/ADR; for Ratio: IC50 on HL-60/ADR cells/IC50 on HL-60 cells
From the text: as §1, §2, §3, §4, §5

[4] = system: tubulin heterodimer; assay: Competitive binding test, [3H]colchicine; design: species or system bovine; details: [3H]colchicine 50 nM
Method: Medium is RPMI-1640 with L-glutamine, supplemented with 10% heat-inactivated fetal calf serum, 100 units/ml penicillin, and 100 μg/ml streptomycin (Gibco, Grand Island, N.Y.). Microtubule-associated protein (MAP)-rich tubulin, containing about 70% tubulin and 30% MAPs (#ML113), and highly purified tubulin (>99% pure, #TL238), both from bovine brain, are obtained from Cytoskeleton, Inc., Denver, Colo. PEM buffer (80 mM piperazine-N,N′-bis[2-ethanesulfonic acid], pH 6.9, 1 mM ethylene glycol-bis(β-aminoethyl ether)-N,N,N′,N′-tetraacetic acid, 1 mM magnesium chloride) and guanosine 5′-triphosphate (GTP) are also obtained from Cytoskeleton. [3H]paclitaxel, specific activity 14.7 Ci/mmol, is purchased from Moravek Biochemicals (Brea, Calif.). [^3H]vinblastine, specific activity 9.60 Ci/mmol and MicroSpin G-50 columns are obtained from Amersham Biosciences (Piscataway, N.J.). […] Other reagents are obtained from Sigma (St. Louis, Mo.).
The binding of examples of this invention to highly purified tubulin is studied by competitive inhibition methods. […] To study possible competition at the taxane site, on the other hand, polymerized tubulin (microtubules) is used because paclitaxel binds preferentially to microtubules.
Highly purified tubulin is dissolved in PEM buffer without GTP and used at a final concentration of 1.0 to 1.3 mg/ml (10 to 13 μM). […] These solutions are incubated at 24° for 1 hr and then applied to MicroSpin G-50 columns which are centrifuged for 2 min at 3000 rpm in an Eppendorf 5415C microfuge. An aliquot of each column effluent (containing tubulin and bound radioligand) is mixed with scintillation fluid and counted in a liquid scintillation spectrometer. […] The ability of the competitor to inhibit the binding of the radioligand is expressed as a percentage of control binding in the absence of any competitor.

[5] = HL-60 cells, MTS, read-out: IC50 HL-60

[3H]Colchicine binding, percent of control without competitor, Mean [4] [%]	Compound	IC50 ([1]; KB cells, MTS) [µM]	IC50 [2, 5] [µM]	IC50 [3] [µM]	Ratio [3]	IC50 ([1]; KB) [µM]	IC50 ([2]; HL-60, read-out: IC50 HL-60) [µM]	IC50 ([3]; HL-60/ADR cells, MTS) [µM]
98	C[C@H](Nc1c(-c2c(F)cc(OCCCO)cc2F)c(Cl)nc2ncnn12)C(F)(F)F [Example 20, 3-[4-(5-Chloro-7-{[(1S)-2,2,2-trifluoro-1-methylethyl]amino}[1,2,4]triazolo[1,5-a]pyrimidin-6-yl)-3,5-difluorophenoxy]propan-1-ol]	0.057	0.155	–	0.48	–	–	0.074
126	C[C@H](Nc1c(-c2c(F)cc(OCCCN(C)C)cc2F)c(Br)nc2ncnn12)C(F)(F)F [Example 25, 5-Bromo-6-{4-[3-(dimethylamino)propoxy]-2,6-difluorophenyl}-N-[(1S)-2,2,2-trifluoro-1-methylethyl][1,2,4]triazolo[1,5-a]pyrimidin-7-amine]	0.059	0.104	–	0.65	–	–	0.068
112	OCCCOc1cc(F)c(-c2c(Cl)nc3ncnn3c2C2CCCCCC2)c(F)c1 [Example 30, 3-[4-(5-Chloro-7-cycloheptyl[1,2,4]triazolo[1,5-a]pyrimidin-6-yl)-3,5-difluorophenoxy]propan-1-ol]	0.072	0.055	–	0.94	–	–	0.052
94	CNCCCOc1cc(F)c(-c2c(Cl)nc3ncnn3c2C2CCCCCC2)c(F)c1.O=C(O)C(F)(F)F [Example 32, 3-[4-(5-Chloro-7-cycloheptyl[1,2,4]triazolo[1,5-a]pyrimidin-6-yl)-3,5-difluorophenoxy]-N-methylpropan-1-amine trifluoroacetic acid salt]	0.011	0.0071	–	0.92	–	–	0.0066
93	CC(=O)O[C@H]1C(=O)[C@@]2(C)[C@H]([C@H](OC(=O)c3ccccc3)[C@]3(O)C[C@H](OC(=O)[C@H](O)[C@@H](NC(=O)c4ccccc4)c4ccccc4)C(C)=C1C3(C)C)[C@]1(OC(C)=O)CO[C@@H]1C[C@@H]2O [Paclitaxel, reference compound]	0.0029	0.0057	–	1.1	–	–	0.0064
99	CC[C@]1(O)C[C@H]2CN(CCc3c([nH]c4ccccc34)[C@@](C(=O)OC)(c3cc4c(cc3OC)N(C=O)[C@H]3[C@@](O)(C(=O)OC)[C@H](OC(C)=O)[C@]5(CC)C=CCN6CC[C@]43[C@@H]65)C2)C1 [Vincristine, reference compound]	0.0064	0.0025	–	8.2	–	–	0.02

Compound	[3H]Colchicine binding, percent of control without competitor, Mean [4] [%]	IC50 ([1]; KB cells, MTS) [µM]	IC50 [2, 5] [µM]	IC50 [3] [µM]	Ratio [3]	IC50 ([1]; KB) [µM]	IC50 ([2]; HL-60, read-out: IC50 HL-60) [µM]	IC50 ([3]; HL-60/ADR cells, MTS) [µM]
C[C@H](Nc1c(-c2c(F)cc(OCCCN(C)C)cc2F)c(Cl)nc2ncnn12)C(F)(F)F.Cl [Example 1a, 5-chloro-6-{4-[3-(dimethylamino)propoxy]-2,6-difluorophenyl}-N-[(1S)-2,2,2-trifluoro-1-methylethyl][1,2,4]triazolo[1,5-a]pyrimidin-7-amine hydrogen chloride Salt]	129	0.028	0.071	0.063	0.89	–	–	–
CNCCCOc1cc(F)c(-c2c(Cl)nc3ncnn3c2N[C@@H](C)C(F)(F)F)c(F)c1.Cl [Example 2a, 5-Chloro-6-{2,6-difluoro-4-[3-(methylamino)propoxy]phenyl}-N-[(1S)-2,2,2-trifluoro-1-methylethyl][1,2,4]triazolo[1,5-a]pyrimidin-7-amine hydrogen chloride]	122	–	–	0.047	1.1	0.024	0.043	–
CNCCCOc1cc(F)c(-c2c(Cl)nc3ncnn3c2NCC(F)(F)F)c(F)c1.Cl [Example 3a, 5-Chloro-6-{2,6-difluoro-4-[3-(methylamino)propoxy]phenyl}-N-(2,2,2-trifluoroethyl)[1,2,4]triazolo[1,5-a]pyrimidin-7-amine hydrogen chloride Salt]	134	0.018	0.026	–	0.81	–	–	0.021
CN(C)CCCOc1cc(F)c(-c2c(Cl)nc3ncnn3c2NCC(F)(F)F)c(F)c1.Cl [Example 4a, 5-Chloro-6-{4-[3-(dimethylamino)propoxy]-2,6-difluorophenyl}-N-(2,2,2-trifluoroethyl)[1,2,4]triazolo[1,5-a]pyrimidin-7-amine Hydrogen chloride Salt]	134	0.024	0.052	–	0.65	–	–	0.034
